# Literature values, collected in publication PMC10444862, “Using macromolecular electron densities to improve the enrichment of active compounds in virtual screening” (Communications Chemistry, 2023).
# Test system: AMPC
# Conditions: activities reported in the DUD-E dataset; cited from earlier work
row,SMILES,label
1,"Nc1onc(-c2ccc(Cl)cc2)c1C(=O)O [317_12, Nc1onc(-c2ccc(Cl)cc2)c1C(=O)[O-]]",active
2,"O=C(O)c1ccccc1S(=O)(=O)Nc1ccc(Cl)cc1 [109_49, O=C([O-])c1ccccc1S(=O)(=O)Nc1ccc(Cl)cc1]",active
3,"O=C(O)c1sccc1S(=O)(=O)Nc1ccccc1N1CCCCC1 [104_58, O=C([O-])c1sccc1S(=O)(=O)Nc1ccccc1N1CCCCC1]",active
4,"CSCC[C@@H](C(=O)O)N1C(=O)c2ccc(C(=O)O)cc2C1=O [212_4, CSCC[C@@H](C(=O)[O-])N1C(=O)c2ccc(C(=O)[O-])cc2C1=O]",active
5,"Cc1nc2ccc(P(=O)(O)O)cc2s1 [319_2, Cc1nc2ccc([P@](=O)([O-])O)cc2s1]",active
